Measurements as given in US5792777A, “Biphenyl quinuclidines” (Zeneca Limited, priority 1991, dated 1998).

Tests used:
Squalene Synthetase = biological target: T1, Squalene Synthetase (Rattus norvegicus, UniProt Q02769); assay: Inhibition of Squalene Synthetase (formation of squalene from tritiated farnesyl pyrophosphate, rat liver microsomal protein); type: biochemical; details: 20 μM 1-[3H]-farnesyl pyrophosphate, 15 minutes, 37° C., read-out: IC50 (concentration which results in a 50% inhibition of squalene production)
T1 construct: from tissue; host or cells: rat liver microsomes
T1 sequence (Q02769 1-416): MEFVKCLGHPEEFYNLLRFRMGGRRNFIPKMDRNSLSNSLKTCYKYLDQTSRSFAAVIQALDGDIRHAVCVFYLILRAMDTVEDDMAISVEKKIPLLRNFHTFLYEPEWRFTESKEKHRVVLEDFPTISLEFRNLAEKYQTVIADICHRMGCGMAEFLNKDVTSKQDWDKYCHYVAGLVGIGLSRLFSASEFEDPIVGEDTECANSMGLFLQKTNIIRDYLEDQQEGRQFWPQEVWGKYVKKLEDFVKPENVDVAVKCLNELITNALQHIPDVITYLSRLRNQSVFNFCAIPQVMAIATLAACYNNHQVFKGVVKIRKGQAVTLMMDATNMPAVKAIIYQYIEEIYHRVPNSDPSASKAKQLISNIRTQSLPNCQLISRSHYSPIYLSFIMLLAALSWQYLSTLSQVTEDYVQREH
Procedure: (a) Inhibition of Squalene Synthetase
In this test, the ability of a compound to prevent the formation of squalene from a radioactive substrate (tritiated farnesyl pyrophosphate) is assessed.
The test compound is incubated at a concentration of 25 micromolar in 200 μl of a buffered solution containing potassium phosphate (50 mM), MgCl2 (4.95 mM), KF (9.9 mM), NADPH (0.9 mM) and rat liver microsomal protein (20 μg). Rat liver microsomes are prepared by the method described in published European Patent Application No. 324,421 and stored in liquid nitrogen prior to assay. Assay vials are kept at 37° C. throughout the incubation.
The reaction is started with the addition of the substrate (1-[^3 H]-farnesyl pyrophosphate), final concentration 20 μM, and stopped after 15 minutes reaction time with the addition of 50 μl of 4% KOH. The reaction products are separated from unreacted substrate after application to a C-18 octadecyl 1ccBond column (Analytichem Int product No. 617101). An aqueous fraction is eluted with 250 μl of 0.1M KOH. Squalene is then eluted with 1.0 ml 10% ethylacetate in hexane and radioactivity determined. The difference in radioactivity in the presence and absence of the test compound is used to determine the level of inhibition. […] The IC50 can then be determined from a plot of percentage inhibition against concentration of test compound.

[1] = system: de novo hepatic cholesterol synthesis; assay: Acute Rat Cholesterol Synthesis Assay (de novo hepatic cholesterol synthesis from exogenously administered 14C-acetate); type: in vivo; details: female rats, oral gavage, ip or iv (route not specified), 14C-acetate ip after 1 hour, blood sample a further hour later
Procedure: (b) Acute Rat Cholesterol Synthesis Assay
This is an acute in vivo test in the rat to measure de novo hepatic cholesterol synthesis from exogenously administered ^14 C-acetate.
Female rats (35-55 g) are housed in reverse lighting conditions (red light from 0200h-1400h) for a period of about 2 weeks prior to test. Animals are allowed free access to chow and drinking water throughout this period. At test, animals should weigh 125-150 g.
Test compounds may be administered by oral gavage, dissolved or suspended in 0.5% polysorbate, or by ip or iv dosing. Control animals receive vehicle alone. After 1 hour the rats are injected ip with 25 μCi [2-^14 C]-acetate (NEN DUPONT. specific activity, 45-60 mCi/mmol NEC-085H, or AMERSHAM specific activity, 50-60 mCi/mmol CFA 14) in a volume of 0.25 ml saline (100 μCi/ml). After a further hour, rats are terminally anaesthetised with halothane and a blood sample obtained from the abdominal vena cava.
1 ml of plasma is lyophilised and then saponified in 2 ml ethanolic KOH (1 part 33% KOH, 9 parts ethanol) at 75° C. for 2 hours. After addition of an equal quantity of water, non-saponifiable lipids are extracted with two 5 ml volumes of hexane. The hexane extracts are evaporated to dryness and the residues dissolved in ethanol to determine cholesterol specific radioactivity. ED50 values can be determined in the standard way.

Structure (SMILES) | IC50 (Squalene Synthetase) | ED50 [1]
OC1(c2cccc(-c3ccccc3)c2)CN2CCC1CC2 (centres unmarked) [Example 3, 3-(biphenyl-3-yl)-3-hydroxyquinuclidine] | 600 nM | –
OC1(c2ccc(-c3ccc(F)cc3)cc2)CN2CCC1CC2 (centres unmarked) [Example 6, 3-[4'-fluorobiphenyl-4-yl]-3-hydroxyquinuclidine] | – | 8 mg/kg
